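Tested at 5 concentrations; 48 h exposure; 96-well plates; endpoints linearly interpolated, else capped at highest concentration. At the GI50, growth is halved.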 The source made the active and inactive calls. Cut-off read from the data, not from the text of the source: active = GI50 up to about 1.1 µM and inactive = higher.
What was measured:
Test in all cases: inhibition of tumour cell growth, NCI panel, 48 h
786-0 = system: 786-0
CCRF-CEM = system: CCRF-CEM
COLO 205 = system: COLO 205
HCC 2998 = system: HCC 2998
HCT-15 = system: HCT-15
HOP-92 = system: HOP-92
HT-29 = system: HT-29
KM12 = system: KM12
MOLT-4 = system: MOLT-4
Malme-3M = system: Malme-3M
NCI-H522 = system: NCI-H522
NCI/ADR-RES = system: NCI/ADR-RES
OVCAR-3 = system: OVCAR-3
OVCAR-5 = system: OVCAR-5
OVCAR-8 = system: OVCAR-8
RXF 393 = system: RXF 393
SK-MEL-5 = system: SK-MEL-5
SNB-75 = system: SNB-75
TK-10 = system: TK-10
MDA-MB-435 = system: MDA-MB-435

Measured: GI50

O=C1c2ccccc2-c2nc3ccc(O)cc3n21
inactive: 786-0 > 100 µM | CCRF-CEM > 100 µM | COLO 205 > 100 µM | HCC 2998 > 100 µM | HOP-92 > 100 µM | HT-29 > 100 µM | KM12 > 100 µM | MOLT-4 > 100 µM | Malme-3M > 100 µM | NCI-H522 > 100 µM | NCI/ADR-RES > 100 µM | OVCAR-3 > 100 µM | OVCAR-5 > 100 µM | OVCAR-8 > 100 µM | RXF 393 > 100 µM | SK-MEL-5 > 100 µM | SNB-75 34.1 µM | TK-10 > 100 µM
> 100 µM: HCT-15

OC(Cc1ccccc1)(Cc1ccccc1)c1ccccc1
20.5 µM: HCT-15
inactive: 786-0 15.2 µM | CCRF-CEM 20.7 µM | HOP-92 16.9 µM | HT-29 15.9 µM | KM12 18.3 µM | MDA-MB-435 17.5 µM | MOLT-4 24.6 µM | Malme-3M 13.1 µM | NCI-H522 14.7 µM | NCI/ADR-RES 23 µM | OVCAR-3 18.2 µM | OVCAR-5 17.2 µM | OVCAR-8 19 µM | RXF 393 15.3 µM | SK-MEL-5 18 µM | TK-10 19.8 µM

O=C(N/N=C/c1ccc(O)cc1)NNCCO
> 100 µM: HCT-15
inactive: 786-0 > 100 µM | CCRF-CEM > 100 µM | COLO 205 > 100 µM | HCC 2998 > 100 µM | HT-29 > 100 µM | KM12 > 100 µM | MDA-MB-435 > 100 µM | MOLT-4 > 100 µM | Malme-3M > 100 µM | NCI-H522 > 100 µM | NCI/ADR-RES > 100 µM | OVCAR-3 > 100 µM | OVCAR-5 > 100 µM | OVCAR-8 > 100 µM | SK-MEL-5 > 100 µM | SNB-75 50.5 µM | TK-10 > 100 µM

COC(=O)C1=C(CCC[C@H](C)O[Si](C)(C)C(C)(C)C)NC(=O)N2[C@@H](CCO)CC[C@H]12
inactive: 786-0 14.5 µM | COLO 205 17.6 µM | HOP-92 14.2 µM | HT-29 15.4 µM | KM12 18.3 µM | MDA-MB-435 17.7 µM | MOLT-4 18.6 µM | Malme-3M 12.5 µM | NCI-H522 5.71 µM | NCI/ADR-RES 13.9 µM | OVCAR-3 13.3 µM | OVCAR-5 19.4 µM | OVCAR-8 15.5 µM | RXF 393 12.4 µM | SK-MEL-5 7.82 µM | SNB-75 15.7 µM | TK-10 18.6 µM
15 µM: HCT-15

CCOP(=O)(OCC)/C(=C\n1ccc(=O)[nH]c1=S)C(=O)OC
> 100 µM: HCT-15
inactive: 786-0 > 100 µM | CCRF-CEM > 100 µM | COLO 205 > 100 µM | HCC 2998 > 100 µM | HT-29 > 100 µM | KM12 > 100 µM | MDA-MB-435 > 100 µM | MOLT-4 > 100 µM | Malme-3M > 100 µM | NCI-H522 > 100 µM | NCI/ADR-RES > 100 µM | OVCAR-5 > 100 µM | OVCAR-8 > 100 µM | RXF 393 > 100 µM | SK-MEL-5 > 100 µM | SNB-75 > 100 µM

COc1ccc2c(c1)C1OCCNC1CC2 (configuration not stated)
inactive: 786-0 > 100 µM | CCRF-CEM > 100 µM | COLO 205 > 100 µM | HT-29 > 100 µM | KM12 > 100 µM | MDA-MB-435 > 100 µM | MOLT-4 > 100 µM | Malme-3M > 100 µM | NCI-H522 > 100 µM | NCI/ADR-RES > 100 µM | OVCAR-5 > 100 µM | OVCAR-8 > 100 µM | RXF 393 > 100 µM | SK-MEL-5 > 100 µM | SNB-75 > 100 µM | TK-10 > 100 µM
> 100 µM: HCT-15

CC(=O)OCc1nc(C#N)c(N)o1
> 100 µM: HCT-15
inactive: 786-0 > 100 µM | CCRF-CEM > 100 µM | COLO 205 > 100 µM | HCC 2998 > 100 µM | HOP-92 > 100 µM | HT-29 > 100 µM | KM12 > 100 µM | MDA-MB-435 > 100 µM | MOLT-4 > 100 µM | Malme-3M > 100 µM | NCI-H522 > 100 µM | OVCAR-3 > 100 µM | OVCAR-5 > 100 µM | RXF 393 > 100 µM | SK-MEL-5 > 100 µM | TK-10 > 100 µM

CSc1ccc(-c2cc(-c3nc4ccccc4[nH]3)no2)cc1
inactive: 786-0 55.1 µM | CCRF-CEM 18.4 µM | COLO 205 23.9 µM | HCC 2998 16.2 µM | HOP-92 50.6 µM | HT-29 24.8 µM | KM12 9.91 µM | MDA-MB-435 18.5 µM | MOLT-4 8.34 µM | Malme-3M 35 µM | NCI-H522 20.3 µM | NCI/ADR-RES 23.2 µM | OVCAR-3 22.1 µM | OVCAR-5 > 100 µM | OVCAR-8 35 µM | SK-MEL-5 15.9 µM | SNB-75 37.6 µM | TK-10 36.6 µM
9.62 µM: HCT-15

S=C(N1CCN(c2ccccc2)CC1)N1CCN(c2ccccc2)CC1
> 100 µM: HCT-15
inactive: 786-0 > 100 µM | CCRF-CEM 24.4 µM | COLO 205 > 100 µM | HCC 2998 > 100 µM | HT-29 55.2 µM | KM12 > 100 µM | MDA-MB-435 > 100 µM | MOLT-4 71.3 µM | Malme-3M > 100 µM | NCI-H522 > 100 µM | NCI/ADR-RES > 100 µM | OVCAR-3 > 100 µM | OVCAR-5 > 100 µM | OVCAR-8 > 100 µM | RXF 393 > 100 µM | SK-MEL-5 95.1 µM | SNB-75 27.2 µM | TK-10 > 100 µM

O=C(c1ccccc1)c1c(-c2ccccc2)n(-c2ccccc2)[nH]c(=O)c1=O
inactive: 786-0 31.2 µM | CCRF-CEM 15.5 µM | COLO 205 75.2 µM | HCC 2998 > 100 µM | HOP-92 31.2 µM | HT-29 > 100 µM | KM12 54.3 µM | MDA-MB-435 28.2 µM | MOLT-4 28.2 µM | Malme-3M 22.5 µM | NCI/ADR-RES 62.4 µM | OVCAR-3 37.2 µM | OVCAR-5 > 100 µM | OVCAR-8 46 µM | SK-MEL-5 > 100 µM | TK-10 42.5 µM
78.2 µM: HCT-15
active: NCI-H522 0.361 µM

O=C(Cc1ccccc1)c1ccc2[nH]c(=O)oc2c1
active: SNB-75 0.126 µM
inactive: 786-0 87.3 µM | CCRF-CEM > 100 µM | COLO 205 66.2 µM | HT-29 37.5 µM | KM12 19 µM | MDA-MB-435 33.7 µM | MOLT-4 31.6 µM | NCI/ADR-RES 18.4 µM | OVCAR-3 35.2 µM | OVCAR-5 > 100 µM | OVCAR-8 23.2 µM | RXF 393 39.6 µM | TK-10 97.3 µM
58.9 µM: HCT-15

CN1CCC/C1=N\C#N
> 100 µM: HCT-15
inactive: 786-0 > 100 µM | CCRF-CEM > 100 µM | COLO 205 > 100 µM | HCC 2998 > 100 µM | HT-29 > 100 µM | KM12 > 100 µM | MDA-MB-435 > 100 µM | MOLT-4 > 100 µM | Malme-3M > 100 µM | NCI-H522 > 100 µM | NCI/ADR-RES > 100 µM | OVCAR-3 > 100 µM | OVCAR-5 > 100 µM | OVCAR-8 > 100 µM | RXF 393 > 100 µM | SK-MEL-5 > 100 µM | SNB-75 > 100 µM | TK-10 > 100 µM

O=C(Nc1cccc([N+](=O)[O-])c1)c1nnn(-c2cccc([N+](=O)[O-])c2)c1O
inactive: 786-0 > 100 µM | CCRF-CEM > 100 µM | COLO 205 > 100 µM | HT-29 > 100 µM | KM12 > 100 µM | MDA-MB-435 > 100 µM | MOLT-4 > 100 µM | Malme-3M > 100 µM | NCI-H522 > 100 µM | NCI/ADR-RES > 100 µM | OVCAR-5 > 100 µM | OVCAR-8 > 100 µM | RXF 393 > 100 µM | SK-MEL-5 > 100 µM | SNB-75 > 100 µM

COc1cc([C@@H]2OC[C@@H]3C(c4cc(OC)c5c(c4)OCO5)OC[C@@H]32)cc(OC)c1OC (some centres not stated)
43.3 µM: HCT-15
inactive: 786-0 > 100 µM | CCRF-CEM 52.4 µM | COLO 205 > 100 µM | HCC 2998 > 100 µM | HOP-92 > 100 µM | HT-29 42.2 µM | KM12 > 100 µM | MDA-MB-435 > 100 µM | MOLT-4 51.3 µM | NCI-H522 96.8 µM | NCI/ADR-RES 31.6 µM | OVCAR-3 > 100 µM | OVCAR-5 > 100 µM | OVCAR-8 69.8 µM | SK-MEL-5 26.9 µM | SNB-75 > 100 µM | TK-10 > 100 µM

CC1=CC(=O)C(=C(C)C)CC1
inactive: 786-0 > 100 µM | CCRF-CEM 28.9 µM | COLO 205 > 10 µM | HT-29 > 100 µM | KM12 > 100 µM | MDA-MB-435 > 100 µM | MOLT-4 > 100 µM | Malme-3M > 100 µM | NCI-H522 > 100 µM | NCI/ADR-RES > 100 µM | OVCAR-3 > 100 µM | OVCAR-5 > 100 µM | OVCAR-8 > 100 µM | RXF 393 26.1 µM | SK-MEL-5 > 100 µM | SNB-75 > 100 µM | TK-10 > 100 µM
> 100 µM: HCT-15

O=C1O/C(=C\C=C\CO)C=C1/C=C/CO [LISSOCLINOLIDE]
inactive: 786-0 12.5 µM | CCRF-CEM 22.9 µM | COLO 205 2.23 µM | HT-29 23 µM | KM12 36.9 µM | MDA-MB-435 35.7 µM | MOLT-4 50.6 µM | Malme-3M 13.8 µM | NCI-H522 10.3 µM | NCI/ADR-RES 33.3 µM | OVCAR-3 24.2 µM | OVCAR-5 20 µM | OVCAR-8 19.2 µM | RXF 393 19 µM | SK-MEL-5 22.1 µM | SNB-75 > 100 µM | TK-10 19.1 µM
12.3 µM: HCT-15

— ChEMBL document CHEMBL1201862, “PubChem BioAssay data set” (2004)
